Test in all cases: relative viability (nuclei count vs DMSO), 5 days (fraction); higher = more cells survive
Compound in the assay “Gemcitabine + OSI-027”: Nc1ccn([C@@H]2O[C@H](CO)[C@@H](O)C2(F)F)c(=O)n1 [Gemcitabine] + COc1cccc2cc(-c3nc([C@H]4CC[C@H](C(=O)O)CC4)n4ncnc(N)c34)[nH]c12 [OSI-027] (partner 0.5 µM)
Summed up: (§1)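 Values are medians from duplicate plates. Each reflects relative viability, defined as the nuclei count of treated wells over that of vehicle wells. Lung cancer cell lines in 1536-well plates were pin-tool dosed one day after seeding with one drug alone or with a fixed anchor-drug dose plus five library-drug doses (not always all listed) in √10 steps, then fixed, stained and imaged at 4× after 5 days.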

Compound in the assay “Gemcitabine + Crizotinib”: Nc1ccn([C@@H]2O[C@H](CO)[C@@H](O)C2(F)F)c(=O)n1 [Gemcitabine] + C[C@@H](Oc1cc(-c2cnn(C3CCNCC3)c2)cnc1N)c1c(Cl)ccc(F)c1Cl [Crizotinib] (partner 1 µM)
Summed up:
as §1

Compound in the assay “Gemcitabine + Linsitinib”: Nc1ccn([C@@H]2O[C@H](CO)[C@@H](O)C2(F)F)c(=O)n1 [Gemcitabine] + C[C@]1(O)C[C@@H](c2nc(-c3ccc4ccc(-c5ccccc5)nc4c3)c3c(N)nccn32)C1 [Linsitinib] (partner 1 µM)
Summed up:
as §1

Compound in the assay “Gemcitabine + Tozasertib”: Nc1ccn([C@@H]2O[C@H](CO)[C@@H](O)C2(F)F)c(=O)n1 [Gemcitabine] + Cc1cc(Nc2cc(N3CCN(C)CC3)nc(Sc3ccc(NC(=O)C4CC4)cc3)n2)n[nH]1 [Tozasertib] (partner 0.1 µM)
Summed up:
as §1

Consider LOU-NH91, for which the relative viability in the assay with Gemcitabine + OSI-027 (first compound 0.001 µM) was 0.709; in the assay with Gemcitabine + OSI-027 (first compound 0.003162 µM), 0.616; with Gemcitabine + OSI-027 (first compound 0.01 µM) it was 0.45; in the assay with Gemcitabine + OSI-027 (first compound 0.03162 µM), 0.252; with Gemcitabine + OSI-027 (first compound 0.1 µM) it was 0.215; in the assay with Gemcitabine + Crizotinib (first compound 0.001 µM), 0.715. Besides, the relative viability with Gemcitabine + Crizotinib (first compound 0.003162 µM) worked out at 0.594; with Gemcitabine + Crizotinib (first compound 0.01 µM), 0.451; with Gemcitabine + Crizotinib (first compound 0.03162 µM), 0.286; with Gemcitabine + Crizotinib (first compound 0.1 µM), 0.271; with Gemcitabine + Linsitinib (first compound 0.001 µM) it was 0.922; with Gemcitabine + Linsitinib (first compound 0.003162 µM) it was 0.686. Also, the relative viability amounted to 0.547 in the assay with Gemcitabine + Linsitinib (first compound 0.01 µM); 0.311 with Gemcitabine + Linsitinib (first compound 0.03162 µM); 0.281 with Gemcitabine + Linsitinib (first compound 0.1 µM); 0.699 in the assay with Gemcitabine + Tozasertib (first compound 0.001 µM); 0.578 with Gemcitabine + Tozasertib (first compound 0.003162 µM); 0.415 in the assay with Gemcitabine + Tozasertib (first compound 0.01 µM). The values for the relative viability with Gemcitabine + Tozasertib (first compound 0.03162 µM) and with Gemcitabine + Tozasertib (first compound 0.1 µM) were 0.211 and 0.146, respectively.
Take NCI-H2347: the relative viability with Gemcitabine + OSI-027 (first compound 0.001 µM) was 0.434; in the assay with Gemcitabine + OSI-027 (first compound 0.003162 µM), 0.431; with Gemcitabine + OSI-027 (first compound 0.01 µM), 0.307; in the assay with Gemcitabine + OSI-027 (first compound 0.03162 µM), 0.242; in the assay with Gemcitabine + OSI-027 (first compound 0.1 µM) it was 0.24; with Gemcitabine + Crizotinib (first compound 0.001 µM) it was 0.756. For the same cell line, the relative viability turned out to be 0.704 with Gemcitabine + Crizotinib (first compound 0.003162 µM); 0.623 in the assay with Gemcitabine + Crizotinib (first compound 0.01 µM); 0.452 with Gemcitabine + Crizotinib (first compound 0.03162 µM); 0.477 with Gemcitabine + Crizotinib (first compound 0.1 µM); 1 in the assay with Gemcitabine + Linsitinib (first compound 0.001 µM); 0.918 with Gemcitabine + Linsitinib (first compound 0.003162 µM). Further, the relative viability in the assay with Gemcitabine + Linsitinib (first compound 0.01 µM) is 0.88; with Gemcitabine + Linsitinib (first compound 0.03162 µM) it was 0.606; with Gemcitabine + Linsitinib (first compound 0.1 µM) it was 0.458; in the assay with Gemcitabine + Tozasertib (first compound 0.001 µM) it was 0.563; in the assay with Gemcitabine + Tozasertib (first compound 0.003162 µM), 0.547; with Gemcitabine + Tozasertib (first compound 0.01 µM) it was 0.484. The relative viability with Gemcitabine + Tozasertib (first compound 0.03162 µM) worked out at 0.29; with Gemcitabine + Tozasertib (first compound 0.1 µM), 0.259.
As to NCI-H2126, the relative viability with Gemcitabine + OSI-027 (first compound 0.001 µM) was determined as 0.733; in the assay with Gemcitabine + OSI-027 (first compound 0.003162 µM), 0.596; in the assay with Gemcitabine + OSI-027 (first compound 0.01 µM) it was 0.609; with Gemcitabine + OSI-027 (first compound 0.03162 µM) it was 0.447; in the assay with Gemcitabine + OSI-027 (first compound 0.1 µM), 0.279; in the assay with Gemcitabine + Crizotinib (first compound 0.001 µM), 1.04. Further, the relative viability worked out at 0.999 in the assay with Gemcitabine + Crizotinib (first compound 0.003162 µM); 0.968 with Gemcitabine + Crizotinib (first compound 0.01 µM); 0.644 with Gemcitabine + Crizotinib (first compound 0.03162 µM); 0.41 with Gemcitabine + Crizotinib (first compound 0.1 µM); 0.712 in the assay with Gemcitabine + Linsitinib (first compound 0.001 µM); 0.673 with Gemcitabine + Linsitinib (first compound 0.003162 µM). Further, the relative viability with Gemcitabine + Linsitinib (first compound 0.01 µM) amounted to 0.692; with Gemcitabine + Linsitinib (first compound 0.03162 µM), 0.51; in the assay with Gemcitabine + Linsitinib (first compound 0.1 µM) it was 0.315; with Gemcitabine + Tozasertib (first compound 0.001 µM), 0.866; with Gemcitabine + Tozasertib (first compound 0.003162 µM), 0.802; in the assay with Gemcitabine + Tozasertib (first compound 0.01 µM), 0.756. The relative viability with Gemcitabine + Tozasertib (first compound 0.03162 µM) is 0.471; with Gemcitabine + Tozasertib (first compound 0.1 µM), 0.245.
Consider HCC-827, for which the relative viability with Gemcitabine + OSI-027 (first compound 0.001 µM) came to 0.802; with Gemcitabine + OSI-027 (first compound 0.003162 µM) it was 0.477; with Gemcitabine + OSI-027 (first compound 0.01 µM) it was 0.444; in the assay with Gemcitabine + OSI-027 (first compound 0.03162 µM), 0.159; with Gemcitabine + OSI-027 (first compound 0.1 µM), 0.159; in the assay with Gemcitabine + Crizotinib (first compound 0.001 µM), 0.886. In addition, the relative viability is 0.674 with Gemcitabine + Crizotinib (first compound 0.003162 µM); 0.572 in the assay with Gemcitabine + Crizotinib (first compound 0.01 µM); 0.387 with Gemcitabine + Crizotinib (first compound 0.03162 µM); 0.214 with Gemcitabine + Crizotinib (first compound 0.1 µM); 0.96 in the assay with Gemcitabine + Linsitinib (first compound 0.001 µM); 0.79 in the assay with Gemcitabine + Linsitinib (first compound 0.003162 µM). Moreover, the relative viability turned out to be 0.546 with Gemcitabine + Linsitinib (first compound 0.01 µM); 0.327 with Gemcitabine + Linsitinib (first compound 0.03162 µM); 0.252 with Gemcitabine + Linsitinib (first compound 0.1 µM); 0.402 in the assay with Gemcitabine + Tozasertib (first compound 0.001 µM); 0.392 in the assay with Gemcitabine + Tozasertib (first compound 0.003162 µM); 0.303 with Gemcitabine + Tozasertib (first compound 0.01 µM). The relative viability with Gemcitabine + Tozasertib (first compound 0.03162 µM) was found to be 0.191; with Gemcitabine + Tozasertib (first compound 0.1 µM), 0.169.
Take NCI-H3122: the relative viability with Gemcitabine + OSI-027 (first compound 0.001 µM) was determined as 1.05; with Gemcitabine + OSI-027 (first compound 0.003162 µM) it was 0.918; with Gemcitabine + OSI-027 (first compound 0.01 µM) it was 0.246; with Gemcitabine + OSI-027 (first compound 0.03162 µM), 0.133; with Gemcitabine + OSI-027 (first compound 0.1 µM), 0.112; in the assay with Gemcitabine + Crizotinib (first compound 0.001 µM), 0.306. Also, the relative viability with Gemcitabine + Crizotinib (first compound 0.003162 µM) amounted to 0.27; with Gemcitabine + Crizotinib (first compound 0.01 µM) it was 0.253; with Gemcitabine + Crizotinib (first compound 0.03162 µM), 0.135; with Gemcitabine + Crizotinib (first compound 0.1 µM), 0.119; in the assay with Gemcitabine + Linsitinib (first compound 0.001 µM) it was 1.04; in the assay with Gemcitabine + Linsitinib (first compound 0.003162 µM) it was 0.957. For the same cell line, the relative viability in the assay with Gemcitabine + Linsitinib (first compound 0.01 µM) was determined as 0.892; with Gemcitabine + Linsitinib (first compound 0.03162 µM), 0.262; with Gemcitabine + Linsitinib (first compound 0.1 µM), 0.174; with Gemcitabine + Tozasertib (first compound 0.001 µM), 0.428; with Gemcitabine + Tozasertib (first compound 0.003162 µM), 0.365; in the assay with Gemcitabine + Tozasertib (first compound 0.01 µM), 0.222. Besides, the relative viability with Gemcitabine + Tozasertib (first compound 0.03162 µM) came to 0.106; with Gemcitabine + Tozasertib (first compound 0.1 µM) it was 0.0862.
Consider HOP-62, for which the relative viability with Gemcitabine + OSI-027 (first compound 0.001 µM) worked out at 0.681; with Gemcitabine + OSI-027 (first compound 0.003162 µM) it was 0.557; with Gemcitabine + OSI-027 (first compound 0.01 µM) it was 0.141; with Gemcitabine + OSI-027 (first compound 0.03162 µM) it was 0.127; with Gemcitabine + OSI-027 (first compound 0.1 µM), 0.0935; in the assay with Gemcitabine + Crizotinib (first compound 0.001 µM), 0.906. In addition, the relative viability is 0.677 with Gemcitabine + Crizotinib (first compound 0.003162 µM); 0.0595 with Gemcitabine + Crizotinib (first compound 0.01 µM); 0.051 with Gemcitabine + Crizotinib (first compound 0.03162 µM); 0.0502 with Gemcitabine + Crizotinib (first compound 0.1 µM); 1.07 with Gemcitabine + Linsitinib (first compound 0.001 µM); 0.815 in the assay with Gemcitabine + Linsitinib (first compound 0.003162 µM). For the same cell line, the relative viability with Gemcitabine + Linsitinib (first compound 0.01 µM) was determined as 0.129; with Gemcitabine + Linsitinib (first compound 0.03162 µM) it was 0.0627; with Gemcitabine + Linsitinib (first compound 0.1 µM), 0.056; with Gemcitabine + Tozasertib (first compound 0.001 µM) it was 0.392; with Gemcitabine + Tozasertib (first compound 0.003162 µM), 0.285; with Gemcitabine + Tozasertib (first compound 0.01 µM), 0.0943. Further, the figures for the relative viability with Gemcitabine + Tozasertib (first compound 0.03162 µM) and in the assay with Gemcitabine + Tozasertib (first compound 0.1 µM) were 0.0841 and 0.0623, respectively.
HCC-44: the relative viability is 0.562 with Gemcitabine + OSI-027 (first compound 0.001 µM); 0.352 with Gemcitabine + OSI-027 (first compound 0.003162 µM); 0.357 in the assay with Gemcitabine + OSI-027 (first compound 0.01 µM); 0.178 in the assay with Gemcitabine + OSI-027 (first compound 0.03162 µM); 0.155 with Gemcitabine + OSI-027 (first compound 0.1 µM); 0.825 with Gemcitabine + Crizotinib (first compound 0.001 µM). Moreover, the relative viability with Gemcitabine + Crizotinib (first compound 0.003162 µM) was determined as 0.756; with Gemcitabine + Crizotinib (first compound 0.01 µM) it was 0.614; with Gemcitabine + Crizotinib (first compound 0.03162 µM), 0.201; in the assay with Gemcitabine + Crizotinib (first compound 0.1 µM) it was 0.154; with Gemcitabine + Linsitinib (first compound 0.001 µM) it was 0.628; with Gemcitabine + Linsitinib (first compound 0.003162 µM), 0.672. Moreover, the relative viability with Gemcitabine + Linsitinib (first compound 0.01 µM) amounted to 0.589; in the assay with Gemcitabine + Linsitinib (first compound 0.03162 µM), 0.166; with Gemcitabine + Linsitinib (first compound 0.1 µM), 0.143; with Gemcitabine + Tozasertib (first compound 0.001 µM), 1.05; with Gemcitabine + Tozasertib (first compound 0.003162 µM), 0.918; with Gemcitabine + Tozasertib (first compound 0.01 µM), 0.774. Further, the relative viability in the assay with Gemcitabine + Tozasertib (first compound 0.03162 µM) was 0.194; with Gemcitabine + Tozasertib (first compound 0.1 µM), 0.162.

For the origin of these results see the supplement of paper PMC10307832.
